{"source": "the SangsterLogP compilation", "data": [{"values": [{"smiles": "CC(C)Nc1ccccc1N", "logP": 1.65}, {"smiles": "COc1ccc(C(=O)Nc2nc3ccccc3[nH]2)cc1", "logP": 2.89}, {"smiles": "CCc1ccccc1NC", "logP": 2.58}, {"smiles": "NC(=O)C(C(N)=O)c1ccccc1", "logP": -0.07}, {"smiles": "CCC(=O)NC(=O)Nc1ccccc1", "logP": 2.19}, {"smiles": "CC(C)NC(=O)c1cc2ccccc2oc1=O", "logP": 2.13}, {"smiles": "CC(C)NC(=O)c1ccc2ccccc2c1", "logP": 2.68}, {"smiles": "NC(=O)C(c1ccccc1)c1ccccc1", "logP": 2.11}, {"smiles": "O=C(CCl)Nc1sc2c(c1C(=O)c1ccccc1)CCCC2", "logP": 4.58}, {"smiles": "CNc1ccccc1C(=O)OC", "logP": 2.97}, {"smiles": "CC(C)NC(=O)Nc1ccccc1", "logP": 1.84}, {"smiles": "OCCNc1nc2ccccc2[nH]1", "logP": 1.1}, {"smiles": "O=C(Nc1ccccc1)Nc1ccccn1", "logP": 3.1}, {"smiles": "CNC(=O)Nc1ccccn1", "logP": 0.8}, {"smiles": "CC(=O)Nc1ccccc1N", "logP": 0.13}, {"smiles": "c1ccc(CNc2nc3ccccc3[nH]2)cc1", "logP": 2.92}]}]}
